We go through 13 compounds from US11198713B2, “Agents modulating beta-catenin functions and methods thereof” (FOG PHARMACEUTICALS, INC., priority 2017, dated 2021).

This assay has as its target T1, full-length beta-catenin (Axin site) (Homo sapiens, UniProt P35222).
T1 construct: 15 nM full-length beta-catenin, 20 nM FITC labeled peptide in buffer
T1 sequence (P35222 1-781): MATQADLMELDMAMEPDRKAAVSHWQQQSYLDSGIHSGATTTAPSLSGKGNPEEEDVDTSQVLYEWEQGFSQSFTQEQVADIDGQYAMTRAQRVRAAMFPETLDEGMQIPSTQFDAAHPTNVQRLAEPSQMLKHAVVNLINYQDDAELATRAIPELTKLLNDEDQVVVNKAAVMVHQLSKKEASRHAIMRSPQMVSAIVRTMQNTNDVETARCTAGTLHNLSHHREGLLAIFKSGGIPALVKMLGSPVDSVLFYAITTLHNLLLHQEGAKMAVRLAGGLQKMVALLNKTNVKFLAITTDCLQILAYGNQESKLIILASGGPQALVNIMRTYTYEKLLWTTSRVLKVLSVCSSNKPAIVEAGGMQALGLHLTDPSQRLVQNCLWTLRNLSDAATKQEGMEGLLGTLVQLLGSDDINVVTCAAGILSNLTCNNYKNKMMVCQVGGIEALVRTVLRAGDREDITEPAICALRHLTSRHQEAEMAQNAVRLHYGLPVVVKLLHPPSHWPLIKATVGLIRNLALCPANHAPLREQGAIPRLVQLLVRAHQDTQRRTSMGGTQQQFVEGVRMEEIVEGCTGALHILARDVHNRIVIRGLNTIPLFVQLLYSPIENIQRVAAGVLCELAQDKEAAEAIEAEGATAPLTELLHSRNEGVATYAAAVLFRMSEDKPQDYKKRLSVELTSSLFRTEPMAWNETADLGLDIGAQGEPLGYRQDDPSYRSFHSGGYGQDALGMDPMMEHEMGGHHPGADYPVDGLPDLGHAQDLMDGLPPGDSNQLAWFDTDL
Put plainly: Competition fluorescence polarization assay (Axin site probe). Format: binding. The settings on record: competition fluorescence polarization, Table 2; read-out: in vitro FP EC50. On the procedure: FIG. 1. […] Peptide solutions were prepared in buffer (50 mM Tris pH 8.0, 250 mM NaCl, 2% glycerol, 0.5 mM EDTA, 0.02% w/v sodium azide) using a 3-fold serial dilution from 5 μM. Probe solution (15 nM full-length 13-Catenin, 20 nM FITC labeled peptide (FITC-PEG1-PQ-S5-ILD-S5-HVRRVWR (SEQ ID NO: 1) (hydrocarbon staple formed by two S5 via olefin metathesis)) in buffer) was prepared and incubated for 5 minutes, then 40 μL per well plated in a black polystyrene 384-well plate (Corning). Equal volume of the titrated peptide was added to the plate and incubated protected from light for 15 minutes prior to read. Reads were performed on a Spectramax M5 (Molecular Devices) in duplicate.
FIG. 7. […] BCL9 Competition FP assay: Peptide solutions were prepared in buffer (50 mM Tris pH 8.0, 250 mM NaCl, 2% glycerol, 0.5 mM EDTA, 0.02% w/v sodium azide) using a 3-fold serial dilution from 10 μM. Probe solution (250 nM full-length beta-catenin, 20 nM 5FAM labeled peptide in buffer) was prepared and 40 μL per well plated in a black polystyrene 384-well plate (Corning). Equal volume of the titrated peptide was added to the plate and incubated protected from light for 15 minutes prior to read. Reads were performed on a Spectramax M5 (Molecular Devices) in duplicate. Probe: Ac-[…]nLeu-Leu-2NapA-bala-bala-Lys5FAM-NH2 (SEQ ID NO: 2) (from Biochemistry, 2009, 48 (40), pp 9534-9541). Axin Competition FP assay: Peptide solutions were prepared in buffer (50 mM Tris pH 8.0, 250 mM NaCl, 2% glycerol, 0.5 mM EDTA, 0.02% w/v sodium azide) using a 3-fold serial dilution from 5 μM. Probe solution (15 nM full-length beta-catenin, 20 nM FITC labeled peptide in buffer) was prepared and incubated for 5 minutes, then 40 μL per well plated in a black polystyrene 384-well plate (Corning). Equal volume of the titrated peptide was added to the plate and incubated protected from light for 15 minutes prior to read. Reads were performed on a Spectramax M5 (Molecular Devices) in duplicate. Probe: FITC-StAx-33 from Grossmann et al. PNAS 109 17942-17947.
As for `CC[C@H](C)[C@@H]1NC(=O)[C@H](Cc2c[nH]cn2)NC(=O)[C@H](C)NC(=O)[C@H](CC(=O)O)NC(=O)[C@H](CC(C)C)NC(=O)[C@H]([C@@H](C)CC)NC(=O)[C@](C)(NC(=O)[C@H](C)NC(C)=O)CCCCCC=CCN2CC(C(=O)N[C@@H](CCCNC(=N)N)C(=O)N[C@H](C(=O)N[C@@H](Cc3c[nH]c4ccccc34)C(N)=O)C(C)C)(C2)NC1=O` (single isomer, unassigned) [FP0516a Isomer 1, Ac-A-R7-I-L-D-A-H-I-MA-R-V-W-NH2], the EC50 fell in the range of 0.1 to 0.5 µM. Under `CC[C@H](C)[C@@H]1NC(=O)[C@H](Cc2c[nH]cn2)NC(=O)[C@H](C)NC(=O)[C@H](CC(=O)O)NC(=O)[C@H](CC(C)C)NC(=O)[C@H]([C@@H](C)CC)NC(=O)[C@](C)(NC(=O)[C@H](C)NC(C)=O)CCCCCC=CCN2CC(C(=O)N[C@@H](CCCNC(=N)N)C(=O)N[C@H](C(=O)N[C@@H](Cc3c[nH]c4ccccc34)C(N)=O)C(C)C)(C2)NC1=O` (single isomer, unassigned) [FP0516a Isomer 2, Ac-A-R7-I-L-D-A-H-I-MA-R-V-W-NH2] stands 0.5 to 5 µM.

With `CC[C@H](C)[C@@H]1NC(=O)[C@H](Cc2ccccn2)NC(=O)[C@H](C)NC(=O)[C@H](CC(=O)O)NC(=O)[C@H](CC(C)C)NC(=O)[C@H]([C@@H](C)CC)NC(=O)[C@](C)(NC(=O)[C@H](C)NC(C)=O)CCCCCCC=CCOC(=O)N2CC[C@@](C(=O)N[C@@H](C)C(=O)N[C@H](C(=O)N[C@@H](Cc3c[nH]c4ccccc34)C(N)=O)C(C)C)(C2)NC1=O` (single isomer, unassigned) [FP0554c Isomer 1, Ac-A-R8-I-L-D-A-2pyr-I-MB-A-V-W-NH2], the EC50 was over 5 µM. Under `CC[C@H](C)[C@@H]1NC(=O)[C@H](Cc2ccccn2)NC(=O)[C@H](C)NC(=O)[C@H](CC(=O)O)NC(=O)[C@H](CC(C)C)NC(=O)[C@H]([C@@H](C)CC)NC(=O)[C@](C)(NC(=O)[C@H](C)NC(C)=O)CCCCCCC=CCOC(=O)N2CC[C@@](C(=O)N[C@@H](C)C(=O)N[C@H](C(=O)N[C@@H](Cc3c[nH]c4ccccc34)C(N)=O)C(C)C)(C2)NC1=O` (single isomer, unassigned) [FP0554c Isomer 2, Ac-A-R8-I-L-D-A-2pyr-I-MB-A-V-W-NH2] stands over 5 µM; under `CC[C@H](C)[C@@H]1NC(=O)[C@H](Cc2ccccn2)NC(=O)[C@H](C)NC(=O)[C@H](CC(=O)O)NC(=O)[C@H](CC(C)C)NC(=O)[C@H]([C@@H](C)CC)NC(=O)[C@](C)(NC(=O)[C@H](C)NC(C)=O)CCCCCCC=CCOC(=O)N2CC[C@@](C(=O)N[C@@H](Cc3ccccc3)C(=O)N[C@H](C(=O)N[C@@H](Cc3c[nH]c4ccccc34)C(N)=O)C(C)C)(C2)NC1=O` (single isomer, unassigned) [FP0555c Isomer 1, Ac-A-R8-I-L-D-A-2pyr-I-MB-F-V-W-NH2], over 5 µM; under `CC[C@H](C)[C@@H]1NC(=O)[C@H](Cc2ccccn2)NC(=O)[C@H](C)NC(=O)[C@H](CC(=O)O)NC(=O)[C@H](CC(C)C)NC(=O)[C@H]([C@@H](C)CC)NC(=O)[C@](C)(NC(=O)[C@H](C)NC(C)=O)CCCCCCC=CCOC(=O)N2CC[C@@](C(=O)N[C@@H](Cc3ccccc3)C(=O)N[C@H](C(=O)N[C@@H](Cc3c[nH]c4ccccc34)C(N)=O)C(C)C)(C2)NC1=O` (single isomer, unassigned) [FP0555c Isomer 2, Ac-A-R8-I-L-D-A-2pyr-I-MB-F-V-W-NH2], over 5 µM.

Take `CC[C@H](C)[C@@H]1NC(=O)[C@H](Cc2ccccn2)NC(=O)[C@H](C)NC(=O)[C@H](CC(=O)O)NC(=O)[C@H](CC(C)C)NC(=O)[C@H]([C@@H](C)CC)NC(=O)[C@](C)(NC(=O)[C@H](C)NC(C)=O)CCCCCCC=CCOC(=O)N2CC[C@@](C(=O)N[C@H](C(=O)N[C@H](C(=O)N[C@@H](Cc3c[nH]c4ccccc34)C(N)=O)C(C)C)[C@@H](C)CC)(C2)NC1=O` (single isomer, unassigned) [FP0556c Isomer 1, Ac-A-R8-I-L-D-A-2pyr-I-MB-I-V-W-NH2]: the EC50 is over 5 µM. For the compound `CC[C@H](C)[C@@H]1NC(=O)[C@H](Cc2ccccn2)NC(=O)[C@H](C)NC(=O)[C@H](CC(=O)O)NC(=O)[C@H](CC(C)C)NC(=O)[C@H]([C@@H](C)CC)NC(=O)[C@](C)(NC(=O)[C@H](C)NC(C)=O)CCCCCCC=CCOC(=O)N2CC[C@@](C(=O)N[C@H](C(=O)N[C@H](C(=O)N[C@@H](Cc3c[nH]c4ccccc34)C(N)=O)C(C)C)[C@@H](C)CC)(C2)NC1=O` (single isomer, unassigned) [FP0556c Isomer 2, Ac-A-R8-I-L-D-A-2pyr-I-MB-I-V-W-NH2], the EC50 was over 5 µM.

`CC[C@H](C)[C@@H]1NC(=O)[C@H](Cc2ccccn2)NC(=O)[C@H](C)NC(=O)[C@H](CC(=O)O)NC(=O)[C@H](CC(C)C)NC(=O)[C@H]([C@@H](C)CC)NC(=O)[C@](C)(NC(=O)[C@H](C)NC(C)=O)CCCCCCC=CCOC(=O)N2CC[C@@](C(=O)N[C@@H](CC(C)C)C(=O)N[C@H](C(=O)N[C@@H](Cc3c[nH]c4ccccc34)C(N)=O)C(C)C)(C2)NC1=O` (single isomer, unassigned) [FP0557c Isomer 1, Ac-A-R8-I-L-D-A-2pyr-I-MB-L-V-W-NH2]: the concentration giving a half-maximal response (EC50) was over 5 µM.

On to `CC[C@H](C)[C@@H]1NC(=O)[C@H](Cc2ccccn2)NC(=O)[C@H](C)NC(=O)[C@H](CC(=O)O)NC(=O)[C@H](CC(C)C)NC(=O)[C@H]([C@@H](C)CC)NC(=O)[C@](C)(NC(=O)[C@H](C)NC(C)=O)CCCCCCC=CCOC(=O)N2CC[C@@](C(=O)N[C@@H](CC(C)C)C(=O)N[C@H](C(=O)N[C@@H](Cc3c[nH]c4ccccc34)C(N)=O)C(C)C)(C2)NC1=O` (single isomer, unassigned) [FP0557c Isomer 2, Ac-A-R8-I-L-D-A-2pyr-I-MB-L-V-W-NH2], for which the EC50 is over 5 µM. To `CC[C@H](C)[C@@H]1NC(=O)[C@H](Cc2ccccn2)NC(=O)[C@H](C)NC(=O)[C@H](CC(=O)O)NC(=O)[C@H](CC(C)C)NC(=O)[C@H]([C@@H](C)CC)NC(=O)[C@](C)(NC(=O)[C@H](C)NC(C)=O)CCCCCCC=CCOC(=O)N2CC[C@@](C(=O)N[C@@H](CC(N)=O)C(=O)N[C@H](C(=O)N[C@@H](Cc3c[nH]c4ccccc34)C(N)=O)C(C)C)(C2)NC1=O` (single isomer, unassigned) [FP0558c Isomer 1, Ac-A-R8-I-L-D-A-2pyr-I-MB-N-V-W-NH2] belongs over 5 µM; to `CC[C@H](C)[C@@H]1NC(=O)[C@H](Cc2ccccn2)NC(=O)[C@H](C)NC(=O)[C@H](CC(=O)O)NC(=O)[C@H](CC(C)C)NC(=O)[C@H]([C@@H](C)CC)NC(=O)[C@](C)(NC(=O)[C@H](C)NC(C)=O)CCCCCCC=CCOC(=O)N2CC[C@@](C(=O)N[C@@H](CC(N)=O)C(=O)N[C@H](C(=O)N[C@@H](Cc3c[nH]c4ccccc34)C(N)=O)C(C)C)(C2)NC1=O` (single isomer, unassigned) [FP0558c Isomer 2, Ac-A-R8-I-L-D-A-2pyr-I-MB-N-V-W-NH2], over 5 µM; to `CC[C@H](C)[C@@H]1NC(=O)[C@H](Cc2ccccn2)NC(=O)[C@H](C)NC(=O)[C@H](CC(=O)O)NC(=O)[C@H](CC(C)C)NC(=O)[C@H]([C@@H](C)CC)NC(=O)[C@](C)(NC(=O)[C@H](C)NC(C)=O)CCCCCCC=CCOC(=O)N2CC[C@@](C(=O)N[C@@H](CCC(N)=O)C(=O)N[C@H](C(=O)N[C@@H](Cc3c[nH]c4ccccc34)C(N)=O)C(C)C)(C2)NC1=O` (single isomer, unassigned) [FP0559c Isomer 1, Ac-A-R8-I-L-D-A-2pyr-I-MB-Q-V-W-NH2], over 5 µM.
